This note sets out measurements from patent US6465477B1, “Stable pharmaceutical composition” (Kowa Company, Ltd., priority 1997, dated 2002).

This series in a line: Decomposition products of NK-104 and fluvastatin in aqueous solution of pH 3, analyzed by HPLC. As to conditions: aqueous solution pH 3, 40° C. The format is physicochemical. As for the experimental part:
Decomposition products of NK-104 were analyzed by HPLC after incubation for two days at 40° C. in aqueous solution of pH 3. […] The decomposition products of fluvastatin were also analyzed for comparison.
The conditions under which NK-104 and Fluvastatine decomposition products were analyzed are as follows:
HPLC system: Type LC-10 (Shimadz, Japan)
Column: DEVELOSIL ODS-HG-5 (NOMURA CHEM., Japan)
Mobil Phase: MeOH/0.02 mol/L phosphate buffer (pH 3)=7/3
Sample: NK-104 or fluvastatin/pH 3/40° C., 2 days
Detector: SPD-MLOAVP, UV 245 mm

Consider `O=C(O)C[C@H](O)C[C@H](O)/C=C/c1c(C2CC2)nc2ccccc2c1-c1ccc(F)cc1` [NK-104, (E)-3,5-dihydroxy-7-[4′-4 ″-fluorophehyl-2 ′-cyclopropyl-quinolin-3′-yl]-6-heptenoic acid], for which the “Quantity of decomposition products” value (2 days) was “a small quantity of one type of decomposition product”. For the same molecule, where the note is “two days”, the “Decomposition products (types)” value is recorded as “a single product, a lactonized form of NK-104”.
